# Measured values taken from patent publication US20240083872A1, “CYCLIC AMINE DERIVATIVES HAVING SEROTONIN RECEPTOR BINDING ACTIVITY” (Shionogi & Co., Ltd., priority 2020, published 2024).
# pKi: −log10 of the molar value. Where two headings read alike, the source gives them in different places.
# How the values were obtained:
# [1] = biological target: human recombinant 5-HT2A receptor (Homo sapiens (Human), UniProt P28223); assay: 5-HT2A receptor binding inhibition test ([3H]-Ketanserin); conditions: Jump-In HEK cell membrane
# Chain of human recombinant 5-HT2A receptor (P28223 whole entry): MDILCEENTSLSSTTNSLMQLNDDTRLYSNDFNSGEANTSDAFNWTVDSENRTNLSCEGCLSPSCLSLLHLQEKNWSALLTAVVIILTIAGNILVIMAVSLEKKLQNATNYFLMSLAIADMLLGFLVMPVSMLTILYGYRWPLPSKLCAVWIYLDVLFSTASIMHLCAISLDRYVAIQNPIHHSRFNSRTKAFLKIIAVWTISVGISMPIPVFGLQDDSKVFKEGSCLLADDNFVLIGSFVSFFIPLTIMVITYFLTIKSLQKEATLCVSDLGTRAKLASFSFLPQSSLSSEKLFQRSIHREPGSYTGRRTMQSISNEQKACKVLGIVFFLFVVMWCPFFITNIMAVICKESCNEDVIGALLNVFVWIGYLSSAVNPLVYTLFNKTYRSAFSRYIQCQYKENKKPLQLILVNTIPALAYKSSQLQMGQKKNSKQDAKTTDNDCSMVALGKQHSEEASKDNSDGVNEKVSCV
# Procedure: Test Example 1: 5-HT2A Receptor Binding Inhibition Test
# (§1) (Each Experimental Condition)
# Cell membrane: Jump-In HEK cell membrane (expressing human recombinant 5-HT2A receptor)
# (§2) Assay buffer: Tris-HCl 50 mmol/L (pH 7.4) containing NaCl 120 mmol/L, MgCl2.6H2O 1 mmol/L, KCl 5 mmol/L, 0.1% BSA, and CaCl2 2 mmol/L
# Radioactive ligand: [^3H]-Ketanserin around Kd value calculated by the following method
# (§3) Non-specific ligand: Serotonin HCl
# (§4) The Kd value was calculated when the lot of cell membrane was changed. In advance, 0.5 μL of a 1 mmol/L compound for non-specific binding calculation dissolved in DMSO or DMSO was dispensed into a microplate, and the cell membrane was diluted with an Assay buffer. The radioactive ligand solution was serially diluted and the count was confirmed with a liquid scintillator. Assay buffer containing diluted cell membrane was dispensed into a microplate at 50 μL/well. Then, the radioactive ligand solution was dispensed into a microplate at 50 μL/well, and the plate was sealed. It was allowed to stand at room temperature (25° C.) for 1.5 hours. During this period, 50 mmol/L Tris-HCl (pH 7.4) was dispensed into a GF/B UniFilter plate at 50 μL/well and allowed to stand at 4° C. for 1 hour or longer. After that, filtration was performed with Cell harvester (PerkinElmer). The radioactive ligand solution was dispensed into an empty well of the GF/B UniFilter plate at 10 μL/well. After the GF/B UniFilter plate was dried at room temperature, MicroScinti 20 was dispensed into the GF/B UniFilter plate at 50 μL/well, and the plate was sealed. The GF/B UniFilter plate was allowed to stand overnight at room temperature. The radioactivity of [^3H]-Ketanserin bound to the 5-HT2A receptor was measured using Microbeta2 (PerkinElmer) at a measurement time of 1 min/well. The Saturation curve was drawn from the measured value, and the Kd value was calculated from the slope of the Scatchard Plot.
# (§5) (Binding Test of the Compound According to the Present Invention)
# (§6) In advance, 0.5 μL of the compound solution dissolved in DMSO was dispensed into a microplate, and the cell membrane and the hot ligand were diluted with Assay buffer, respectively. Then, the Assay buffer containing the diluted cell membrane was dispensed into a microplate at 50 μL/well. Then, the radioactive ligand solution was dispensed into a microplate at 50 μL/well, and the plate was sealed. Then, it was allowed to stand at room temperature (25° C.) for 1.5 hours. During this period, 50 mmol/L Tris-HCl (pH 7.4) was dispensed into a GF/B UniFilter plate at 50 μL/well and allowed to stand at 4° C. for 1 hour or longer. After that, filtration was performed with Cell harvester (PerkinElmer). After the GF/B UniFilter plate was dried at room temperature, MicroScinti 20 was dispensed into the GF/B UniFilter plate at 50 μL/well, and the plate was sealed. The GF/B UniFilter plate was allowed to stand overnight at room temperature. The radioactivity of [^3H]-Ketanserin bound to the 5-HT2A receptor was measured using Microbeta2 (PerkinElmer) at a measurement time of 1 min/well. The non-specific binding was calculated from the radioactivity of [^3H]-Ketanserin in the presence of […] Serotonin HCl with the unlabeled ligand, and the total binding was calculated from the radioactivity of [^3H]-Ketanserin in the absence of the compound according to the present invention (Vehicle). Finally, the Ki value was calculated from the dose-response curve.
# (§7) (The binding activity of the compound according to the present invention was calculated from the following binding inhibition rate (%).)
# (§8) Inhibition rate (%)=[1−(c−a)/(b−a)]×100 • a; mean cpm of non-specific binding • b; mean cpm of total binding • c; cpm in the presence of the test compound
# [2] = biological target: human recombinant 5-HT2C receptor (Homo sapiens (Human), UniProt P28335); assay: 5-HT2C receptor binding inhibition test ([3H]-Mesulergine); conditions: Jump-In HEK cell membrane, [3H]-Mesulergine
# Chain of human recombinant 5-HT2C receptor (P28335 33-458): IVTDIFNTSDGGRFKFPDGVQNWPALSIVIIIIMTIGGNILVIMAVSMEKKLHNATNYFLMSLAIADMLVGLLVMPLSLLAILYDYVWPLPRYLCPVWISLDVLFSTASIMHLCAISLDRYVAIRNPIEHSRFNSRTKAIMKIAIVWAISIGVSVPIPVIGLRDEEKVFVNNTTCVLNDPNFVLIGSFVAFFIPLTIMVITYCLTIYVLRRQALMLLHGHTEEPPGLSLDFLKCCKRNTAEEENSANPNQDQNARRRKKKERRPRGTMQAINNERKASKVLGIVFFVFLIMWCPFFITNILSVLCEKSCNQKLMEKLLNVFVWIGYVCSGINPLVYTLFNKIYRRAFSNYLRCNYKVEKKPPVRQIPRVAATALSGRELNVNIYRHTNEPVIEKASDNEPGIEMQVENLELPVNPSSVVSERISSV
# Procedure: as §1
# Cell membrane: Jump-In HEK cell membrane (expressing human recombinant 5-HT2C receptor)
# as §2
# Radioactive ligand: [^3H]-Mesulergine around Kd value calculated by the following method
# as §3
# as §4, with “[…]” for “4°”, “The radioactivity of [^3H]-Ketanserin bound to the 5-HT2A receptor was measured using Microbeta2 (PerkinElmer) at a measurement time of 1 min/well.” left out
# as §5
# as §6, with “37° C.” for “room temperature (25° C.)”, “2” for “1.5”, “The radioactivity of [^3H]-Ketanserin bound to the 5-HT2A receptor was measured using Microbeta2 (PerkinElmer) at a measurement time of 1 min/well.” left out, “[^3H]-Mesulergine” for “[^3H]-Ketanserin”
# as §7, §8
# [3] = read-out: human serotonin 5-HT2A receptor binding activity, Ki value
# [4] = read-out: human serotonin 5-HT2C receptor binding inhibitory activity, Ki value
Compound,pKi ([1]; read-out: h-5-HT2A Ki),pKi ([2]; read-out: h-5-HT2C Ki),"pKi [1, 3]","pKi [2, 4]"
CCCCOc1ccc(CN(Cc2coc(C)n2)C(=O)NC2CCN(C)CC2)cc1F [Compound I-087],> 8.00,> 8.00,,
CCCCOc1ccc(CN(Cc2coc(C)n2)C(=O)N[C@H]2CCN(C)CC23CC3)cc1 [Compound I-089],> 8.00,> 8.00,,
CCCCOc1ccc(CN(Cc2coc(C)n2)C(=O)N[C@H]2CCN(C)CC23CC3)cc1F [Compound I-090],> 8.00,> 8.00,,
CCCCOc1ccc(CN(Cc2coc(C)n2)C(=O)N[C@H]2CCN(C)CC23CC3)c(F)c1 [Compound I-091],> 8.00,> 8.00,,
CC(C)COc1ccc(CN(Cc2ccn(C)c2)C(=O)OC2CCN(C)CC2)cc1 [Compound I-092],> 8.00,> 8.00,,
CC(C)COc1ccc(CN(Cc2ccc(F)cn2)C(=O)OC2CCN(C)CC2)cc1 [Compound I-093],> 8.00,7.00 to 8.00,,
COc1ccc(CN(Cc2ccn(C)c2)C(=O)OC2CCN(C)CC2)cc1 [Compound I-094],> 8.00,7.00 to 8.00,,
COc1ccc(CN(Cc2coc(C)n2)C(=O)OC2CCN(C)CC2)cc1 [Compound I-095],7.00 to 8.00,7.00 to 8.00,,
CCCCOc1ccc(CN(Cc2cnn(C)n2)C(=O)N[C@H]2CCN(C)CC23CC3)cc1F [Compound I-096],> 8.00,> 8.00,,
CCCCOc1ccc(CN(Cc2cnn(C)n2)C(=O)N[C@H]2CCN(C)CC23CC3)c(F)c1 [Compound I-097],> 8.00,> 8.00,,
CCCCOc1ccc(CN(Cc2cnn(C)n2)C(=O)N[C@H]2CCN(C)CC23CC3)cc1 [Compound I-098],> 8.00,> 8.00,,
CCCCOc1ccc(CN(Cc2cnn(C)n2)C(=O)NC2CCN(C)CC2)cc1F [Compound I-100],> 8.00,> 8.00,,
CC(C)COc1ccc(CN(Cc2cnn(C)n2)C(=O)NC2CCN(C)CC2)cc1 [Compound I-101],,,9.17,9.34
CC(C)COc1ccc(CN(Cc2cnn(C)n2)C(=O)N[C@H]2CCN(C)CC23CC3)cc1 [Compound I-103],,,8.72,9.20
Cc1nc(CN(Cc2ccc(CCC(F)(F)F)cc2F)C(=O)NC2CCN(C)CC2)co1 [Compound I-104],,,9.02,9.32
Cc1nc(CN(Cc2ccc(CCC(F)(F)F)cc2)C(=O)NC2CCN(C)CC2)co1 [Compound I-105],> 8.00,> 8.00,,
CCCCOc1ccc(CN(Cc2coc(C)n2)C(=O)CN2CCN(C)CC2)cc1 [Compound I-106],> 8.00,> 8.00,,
CCCc1ccc(CN(Cc2coc(C)n2)C(=O)NC2CCN(C)CC2)cc1F [Compound I-107],,,9.26,9.47

Compound,pKi ([1]; read-out: h-5-HT2A Ki),pKi ([2]; read-out: h-5-HT2C Ki),"pKi [1, 3]","pKi [2, 4]"
CCCc1ccc(CN(Cc2coc(C)n2)C(=O)NC2CCN(C)CC2)cc1 [Compound I-108],> 8.00,> 8.00,,
CCCCOc1ccc(CN(Cc2coc(C(F)F)n2)C(=O)NC2CCN(C)CC2)cc1 [Compound I-109],,,9.37,9.33
CCCCOc1ccc(CN(Cc2coc(C3CC3)n2)C(=O)NC2CCN(C)CC2)cc1 [Compound I-110],,,9.27,9.52
CN1CCC(NC(=O)N(Cc2ccc(OCC(F)(F)F)cc2)Cc2coc(C3CC3)n2)CC1 [Compound I-111],> 8.00,> 8.00,,
CN1CCC(NC(=O)N(Cc2coc(C3CC3)n2)Cc2ccc(OCC(F)(F)F)cc2F)CC1 [Compound I-112],> 8.00,> 8.00,,
CCCCOc1ccc(CN(Cc2coc(C)n2)C(=O)NC2CCN(C)CC2)c(F)c1 [Compound I-113],> 8.00,> 8.00,,
CCCc1ccc(CN(Cc2coc(C)n2)C(=O)NC2CCN(C)CC2)c(F)c1 [Compound I-114],> 8.00,> 8.00,,
Cc1nc(CN(Cc2ccc(OCC(C)C)c(F)c2)C(=O)NC2CCN(C)CC2)co1 [Compound I-115],> 8.00,> 8.00,,
CC(C)COc1ccc(CN(Cc2cnn(C)n2)C(=O)NC2CCN(C)CC2)cc1F [Compound I-116],> 8.00,> 8.00,,
Cc1nc(CN(Cc2ccc(OCC(C)C)cc2F)C(=O)NC2CCN(C)CC2)co1 [Compound I-117],,,9.09,9.50
CC(C)COc1ccc(CN(Cc2cnn(C)n2)C(=O)NC2CCN(C)CC2)c(F)c1 [Compound I-118],,,8.99,9.43
CCCCOc1ccc(CN(Cc2coc(CF)n2)C(=O)NC2CCN(C)CC2)cc1 [Compound I-119],> 8.00,> 8.00,,
CC(C)COc1ccc(CN(Cc2coc(CF)n2)C(=O)NC2CCN(C)CC2)cc1 [Compound I-120],> 8.00,> 8.00,,
Cc1nc(CN(Cc2ccc(OCC(F)(F)C(F)(F)F)cc2F)C(=O)NC2CCN(C)CC2)co1 [Compound I-121],> 8.00,> 8.00,,
CN1CCC(NC(=O)N(Cc2cnn(C)n2)Cc2ccc(OCC(F)(F)C(F)(F)F)cc2F)CC1 [Compound I-122],,,9.08,9.55
CCCCOc1ccc(CN(Cc2coc(C)n2)C(=O)CC2CCN(C)CC2)cc1F [Compound I-123],,,9.30,8.86
CCCCOc1ccc(CN(Cc2coc(C)n2)C(=O)CN2CCN(C)CC2)cc1F [Compound I-126],,,8.91,8.20
CCCCOc1ccc(CN(Cc2coc(C)n2)C(=O)CCC2CCNCC2)cc1F [Compound I-127],7.00 to 8.00,5.30 to 7.00,,
